Results: patent US20260356841A1, “HETEROCYCLIC PYRIDINONE COMPOUNDS AS TRIGGERING RECEPTOR EXPRESSED ON MYELOID CELLS 2 AGONISTS AND METHODS OF USE” (Vigil Neuroscience, Inc., priority 2023, published 2026)

target: T1, human TREM2 (Homo sapiens, UniProt Q9NZC2); test: TREM2 agonist potency by cellular phosphorylation of Spleen Tyrosine Kinase (Syk), AlphaLisa, HEK293T-hTREM2 cells; assay type: cell-based; settings: not given
T1 construct: expressed in transfected cells; host or cells: HEK293T (HEK293T-hTREM2 cells)
Outline: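 HEK293T cells co-expressing human TREM2 and DAP12, plated 20–24 h before use. Compounds applied 45 min at room temperature in assay buffer, then cells lysed and phospho-Syk quantified by AlphaLisa. Percent activation from a standard curve; EC50 from a four-parameter variable-slope fit.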

T1 sequence (Q9NZC2 19-230): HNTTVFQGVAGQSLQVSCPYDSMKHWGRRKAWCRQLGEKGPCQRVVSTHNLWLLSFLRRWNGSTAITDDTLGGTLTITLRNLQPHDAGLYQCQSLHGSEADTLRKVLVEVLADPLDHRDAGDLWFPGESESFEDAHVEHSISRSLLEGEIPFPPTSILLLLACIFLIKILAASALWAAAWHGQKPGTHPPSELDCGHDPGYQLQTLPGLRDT
T1 sequence (O43914 22-113 partner): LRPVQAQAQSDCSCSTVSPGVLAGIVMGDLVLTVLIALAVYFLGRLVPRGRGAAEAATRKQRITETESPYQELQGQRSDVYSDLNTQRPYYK

Compound	EC50 [µM]
[2H]C([2H])([2H])n1cc([C@H]2C[C@@H](c3nc(-c4ccc(C(F)(F)F)cc4F)c4nc(OC)c(C)nc4n3)CCO2)ccc1=O [Example 132, 5-[(2R,4S)-4-[4-[2-fluoro-4-(trifluoromethyl)phenyl]-6-methoxy-7-methyl-pteridin-2-yl]tetrahydropyran-2-yl]-1-(trideuteriomethyl)pyridin-2-one]	< 0.1
[2H]C([2H])([2H])C([2H])(n1cc([C@H]2C[C@@H](c3nc(C45CC(C(F)(F)F)(C4)C5)c4nc(C)c(C)nc4n3)CCO2)ccc1=O)C([2H])([2H])[2H] [Example 88, 5-[(2R,4S)-4-[6,7-dimethyl-4-[3-(trifluoromethyl)-1-bicyclo[1.1.1]pentanyl]pteridin-2-yl]tetrahydropyran-2-yl]-1-[1,2,2,2-tetradeuterio-1-(trideuteriomethyl)ethyl]pyridin-2-one]	< 0.1

same assay, conditions: hTREM2 EC50 Data (HEK293 Cells); Syk phosphorylation, AlphaLisa; read-out: hTREM2 EC50

Compound	EC50 [µM]
C=CCN(CC=C)n1cc([C@H]2C[C@@H](c3nc(C45CC(C(F)(F)F)(C4)C5)c4nc(C)c(C)nc4n3)CCO2)ccc1=O [Example 206, 1-(diallylamino)-5-[(2R,4S)-4-[6,7-dimethyl-4-[3-(trifluoromethyl)-1-bicyclo[1.1.1]pentanyl]pteridin-2-yl]tetrahydropyran-2-yl]pyridin-2-one]	< 0.1
Cc1nc2nc([C@H]3CCO[C@H](c4cnc(=O)n(C)c4)C3)nc(C34CC(C(F)(F)F)(C3)C4)c2nc1C [Example 163, 1-methyl-5-[(2S,4S)-4-[6,7-dimethyl-4-[3-(trifluoromethyl)-1-bicyclo[1.1.1]pentanyl]pteridin-2-yl]tetrahydropyran-2-yl]pyrimidin-2-one]	< 0.1
Cc1nc2nc(N3C[C@@H](C)O[C@@H](c4ccc(=O)n(C)c4)C3)nc(-c3cnc(C4CC4)s3)c2nc1C [Example 21, 5-[(2S,6R)-4-[4-(2-cyclopropylthiazol-5-yl)-6,7-dimethyl-pteridin-2-yl]-6-methyl-morpholin-2-yl]-1-methyl-pyridin-2-one]	< 0.1
Cc1nc2c(C34CC(C(F)(F)F)(C3)C4)nc(N3C[C@@H](C)O[C@@H](c4ccc(=O)n(C5CC5)c4)C3)nc2c(=O)n1C [Example 219]	< 0.1
CN(C)c1nc2nc([C@H]3CCO[C@@H](c4ccc(=O)n(C)c4)C3)nc(C34CC(C(F)(F)F)(C3)C4)c2n1C [Example 202, 5-((2R,4S)-4-(8-(dimethylamino)-7-methyl-6-(3-(trifluoromethyl)bicyclo[1.1.1]pentan-1-yl)-7H-purin-2-yl)tetrahydro-2H-pyran-2-yl)-1-methylpyridin-2 (1H)-one]	0.1 to 0.5
Cc1nc2nc([C@H]3CCO[C@@H](c4ccc(=O)n(N5CC=CC5)c4)C3)nc(C34CC(C(F)(F)F)(C3)C4)c2nc1C [Example 210, 1-(2,5-dihydropyrrol-1-yl)-5-[(2R,4S)-4-[6,7-dimethyl-4-[3-(trifluoromethyl)-1-bicyclo[1.1.1]pentanyl]pteridin-2-yl]tetrahydropyran-2-yl]pyridin-2-one]	< 0.1
Cc1nc2nc([C@H]3CCO[C@@H](c4ccc(=O)[nH]c4)C3)nc(C34CC(C(F)(F)F)(C3)C4)c2nc1C(F)(F)F [Example 355]	< 0.1
Cc1nc2nc([C@H]3CCO[C@@H](c4ccc(=O)n(CC5(C#N)CC5)c4)C3)nc(C34CC(C(F)(F)F)(C3)C4)c2nc1C [Example 98, 1-[[5-[(2R,4S)-4-[6,7-dimethyl-4-[3-(trifluoromethyl)-1-bicyclo[1.1.1]pentanyl]pteridin-2-yl]tetrahydropyran-2-yl]-2-oxo-1-pyridyl]methyl]cyclopropanecarbonitrile]	< 0.1
COc1nc2c(C34CC(C(F)(F)F)(C3)C4)nc([C@H]3CCO[C@@H](c4ccc(=O)n(C)c4)C3)nc2nc1C [Example 140, 5-[(2R,4S)-4-[6-methoxy-7-methyl-4-[3-(trifluoromethyl)-1-bicyclo[1.1.1]pentanyl]pteridin-2-yl]tetrahydropyran-2-yl]-1-methyl-pyridin-2-one]	< 0.1
Cc1nc2nc(N3C[C@@H](C)O[C@@H](c4ccc(=O)n(C)c4)C3)nc(-c3ccc(F)cc3F)c2nc1C [Example 16, 5-[(2S,6R)-4-[4-(2,4-difluorophenyl)-6,7-dimethyl-pteridin-2-yl]-6-methyl-morpholin-2-yl]-1-methyl-pyridin-2-one]	< 0.1
Cc1nc2nc([C@H]3CCO[C@@H](c4ccc(=O)[nH]c4)C3)nc(C34CC(C(F)(F)F)(C3)C4)c2cc1C(F)(F)F [Example 330, 5-((2R,4S)-4-(7-methyl-6-(trifluoromethyl)-4-(3-(trifluoromethyl)bicyclo[1.1.1]pentan-1-yl)pyrido[2,3-d]pyrimidin-2-yl)tetrahydro-2H-pyran-2-yl)pyridin-2(1H)-one]	< 0.1
Cc1nc2nc([C@@H]3CCO[C@@H](c4ccc(=O)n(C)c4)C3)nc(-c3cc(F)c(C(F)(F)F)cc3F)c2nc1C [Example 348]	> 0.5
COc1nc2c(-c3ccc(C(F)(F)F)cc3F)nc(C3CCOC(c4ccc(=O)n(C)c4)C3)nc2nc1C (stereo not drawn) [Example 131]	< 0.1
Cc1nc2nc([C@H]3CCO[C@@H](c4ccc(=O)n(C5CC5)c4)C3)nc(C34CC(C(F)(F)F)(C3)C4)c2nc1C [Example 74, 1-cyclopropyl-5-[(2R,4S)-4-[6,7-dimethyl-4-[3-(trifluoromethyl)-1-bicyclo[1.1.1]pentanyl]pteridin-2-yl]tetrahydropyran-2-yl]pyridin-2-one]	< 0.1
Cc1nc2nc([C@@H]3CCO[C@H](c4ccc(=O)n(C)c4)C3)cc(C34CC(C(F)(F)F)(C3)C4)c2nc1C [Example 168, 1-methyl-5-[(2S,4R)-4-[2,3-dimethyl-8-[3-(trifluoromethyl)-1-bicyclo[1.1.1]pentanyl]pyrido[2,3-b]pyrazin-6-yl]tetrahydropyran-2-yl]pyridin-2-one]	< 0.1
Cc1nc2nc([C@H]3CCO[C@@H](c4ccc(=O)n(CC#N)c4)C3)nc(C34CC(C(F)(F)F)(C3)C4)c2nc1C [Example 86, 2-[5-[(2R,4S)-4-[6,7-dimethyl-4-[3-(trifluoromethyl)-1-bicyclo[1.1.1]pentanyl]pteridin-2-yl]tetrahydropyran-2-yl]-2-oxo-1-pyridyl]acetonitrile]	< 0.1
Cc1nc2nc([C@H]3CCO[C@@H](c4ccc(=O)n(NCC(F)F)c4)C3)nc(C34CC(C(F)(F)F)(C3)C4)c2nc1C [Example 214, 1-((2,2-difluoroethyl)amino)-5-((2R,4S)-4-(6,7-dimethyl-4-(3-(trifluoromethyl)bicyclo[1.1.1]pentan-1-yl)pteridin-2-yl)tetrahydro-2H-pyran-2-yl)pyridin-2(1H)-one]	< 0.1
Cc1nc2nc(N3C[C@@H](C)O[C@@H](c4ccc(=O)[nH]c4)C3)nc(C34CC(C(F)(F)F)(C3)C4)c2nc1C1COC1 [Example 195, 5-[(2S,6R)-6-methyl-4-[7-methyl-6-(oxetan-3-yl)-4-[3-(trifluoromethyl)-1-bicyclo[1.1.1]pentanyl]pteridin-2-yl]morpholin-2-yl]-1H-pyridin-2-one]	< 0.1
[2H]C([2H])([2H])n1cc([C@H]2C[C@@H](c3nc(C45CC(C(F)(F)F)(C4)C5)c4nc(OC)c(C)nc4n3)CCO2)ccc1=O [Example 147, 5-((2R,4S)-4-(6-methoxy-7-methyl-4-(3-(trifluoromethyl)-bicyclo[1.1.1]pentan-1-yl)pteridin-2-yl)tetrahydro-2H-pyran-2-yl)-1-(methyl-d3)pyridin-2(1H)-one]	< 0.1
